Article PMC6019688 (Redox Biology, 2018)
pKi: −log10 of the molar value.

Target: mitochondrial respiratory chain complex I (Homo sapiens, UniProt O75251+O75306+P03886)
Test: spectrophotometric NADH:decylubiquinone oxidation in DU145 homogenate
Type: cell-based

Sequence of mitochondrial respiratory chain complex I (P03886 whole entry): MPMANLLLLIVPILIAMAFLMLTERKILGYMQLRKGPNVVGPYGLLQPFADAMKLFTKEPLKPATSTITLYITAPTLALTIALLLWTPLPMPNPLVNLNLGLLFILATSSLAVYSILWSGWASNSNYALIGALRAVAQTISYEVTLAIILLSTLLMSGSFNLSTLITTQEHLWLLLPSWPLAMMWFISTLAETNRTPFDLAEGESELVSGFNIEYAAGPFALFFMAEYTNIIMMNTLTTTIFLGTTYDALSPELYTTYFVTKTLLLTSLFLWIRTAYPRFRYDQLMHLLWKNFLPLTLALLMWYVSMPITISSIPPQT
Sequence of mitochondrial respiratory chain complex I (O75306 34-463): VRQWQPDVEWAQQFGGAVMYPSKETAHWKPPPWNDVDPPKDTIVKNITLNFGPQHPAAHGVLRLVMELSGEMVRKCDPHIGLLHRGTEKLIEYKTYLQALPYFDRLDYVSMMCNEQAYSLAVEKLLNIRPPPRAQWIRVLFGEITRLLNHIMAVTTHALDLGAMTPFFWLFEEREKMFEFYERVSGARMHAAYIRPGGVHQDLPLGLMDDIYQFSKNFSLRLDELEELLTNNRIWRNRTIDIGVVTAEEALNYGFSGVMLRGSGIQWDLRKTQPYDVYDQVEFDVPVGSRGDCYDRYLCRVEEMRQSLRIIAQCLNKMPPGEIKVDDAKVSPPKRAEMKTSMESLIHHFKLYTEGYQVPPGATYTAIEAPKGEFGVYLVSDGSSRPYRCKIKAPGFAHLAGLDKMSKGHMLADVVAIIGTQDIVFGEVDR
Sequence of mitochondrial respiratory chain complex I (O75251 39-213): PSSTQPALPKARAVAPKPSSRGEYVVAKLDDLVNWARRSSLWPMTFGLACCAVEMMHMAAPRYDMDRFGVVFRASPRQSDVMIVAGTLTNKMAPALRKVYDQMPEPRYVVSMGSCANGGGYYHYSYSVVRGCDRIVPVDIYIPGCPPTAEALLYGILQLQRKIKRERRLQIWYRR

CCCCN1CCCC[C@H]1C(=O)Nc1c(C)cccc1C [levobupivacaine] gave a pKi of 3.22.
